Columns and labels:
Test in all cases: relative viability (nuclei count vs DMSO), 5 days (fraction); higher = more cells survive
[1] = test system: NCI-H1975
Procedure, shortened: (§1)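 Each reported value is a median over duplicate plates. It expresses relative viability: treated-well nuclei count divided by vehicle-well nuclei count. Lung cancer cell lines in 1536-well plates were dosed by pin tool a day after seeding, alone with one drug or with a fixed anchor-drug dose plus five library-drug doses (not always all listed) in √10 steps, and nuclei were counted after 5 days.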

[2] = test system: NCI-H441
Procedure, shortened: as §1

[3] = test system: NCI-H1666
Procedure, shortened: as §1

[4] = test system: NCI-H3122
Procedure, shortened: as §1

[5] = test system: NCI-H2085
Procedure, shortened: as §1

[6] = test system: NCI-H358
Procedure, shortened: as §1

[7] = test system: NCI-H322M
Procedure, shortened: as §1

[8] = test system: HOP-62
Procedure, shortened: as §1

[9] = test system: NCI-H1755
Procedure, shortened: as §1

[10] = test system: CAL-12T
Procedure, shortened: as §1

[11] = test system: NCI-H2023
Procedure, shortened: as §1

[12] = test system: NCI-H2126
Procedure, shortened: as §1

[13] = test system: COR-L 105
Procedure, shortened: as §1

[14] = test system: ABC-1
Procedure, shortened: as §1

[15] = test system: HCC-78
Procedure, shortened: as §1

[16] = test system: EPLC-272H
Procedure, shortened: as §1

[17] = test system: NCI-H1993
Procedure, shortened: as §1

[18] = test system: NCI-H1915
Procedure, shortened: as §1

[19] = test system: LXF-289
Procedure, shortened: as §1

[20] = test system: EMC-BAC-2
Procedure, shortened: as §1

[21] = test system: HCC-15
Procedure, shortened: as §1

[22] = test system: UMC-11
Procedure, shortened: as §1

[23] = test system: ChaGo-K-1
Procedure, shortened: as §1

SMILES: CC1(C)CCC(c2ccc(Cl)cc2)=C(CN2CCN(c3ccc(C(=O)NS(=O)(=O)c4ccc(N[C@H](CCN5CCOCC5)CSc5ccccc5)c(S(=O)(=O)C(F)(F)F)c4)cc3)CC2)C1 [Navitoclax] + Cc1nc(Nc2ncc(C(=O)Nc3c(C)cccc3Cl)s2)cc(N2CCN(CCO)CC2)n1 [Dasatinib] (partner 0.075 µM)
- relative viability ([1]; first compound 0.005 µM): 0.346
- relative viability ([1]; first compound 0.01581 µM): 0.36
- relative viability ([1]; first compound 0.05 µM): 0.415
- relative viability ([1]; first compound 0.1581 µM): 0.337
- relative viability ([1]; first compound 0.5 µM): 0.323
- relative viability ([2]; first compound 0.005 µM): 0.739
- relative viability ([2]; first compound 0.01581 µM): 0.639
- relative viability ([2]; first compound 0.05 µM): 0.549
- relative viability ([2]; first compound 0.1581 µM): 0.632
- relative viability ([2]; first compound 0.5 µM): 0.637
- relative viability ([3]; first compound 0.005 µM): 0.647
- relative viability ([3]; first compound 0.01581 µM): 0.853
- relative viability ([3]; first compound 0.05 µM): 0.755
- relative viability ([3]; first compound 0.1581 µM): 0.833
- relative viability ([3]; first compound 0.5 µM): 0.766
- relative viability ([4]; first compound 0.005 µM): 0.72
- relative viability ([4]; first compound 0.01581 µM): 0.838
- relative viability ([4]; first compound 0.05 µM): 0.904
- relative viability ([4]; first compound 0.1581 µM): 0.821
- relative viability ([4]; first compound 0.5 µM): 0.682
- relative viability ([5]; first compound 0.005 µM): 0.234
- relative viability ([5]; first compound 0.01581 µM): 0.234
- relative viability ([5]; first compound 0.05 µM): 0.199
- relative viability ([5]; first compound 0.1581 µM): 0.228
- relative viability ([5]; first compound 0.5 µM): 0.315
- relative viability ([6]; first compound 0.005 µM): 0.188
- relative viability ([6]; first compound 0.01581 µM): 0.219
- relative viability ([6]; first compound 0.05 µM): 0.142
- relative viability ([6]; first compound 0.1581 µM): 0.165
- relative viability ([6]; first compound 0.5 µM): 0.199
- relative viability ([7]; first compound 0.005 µM): 0.263
- relative viability ([7]; first compound 0.01581 µM): 0.24
- relative viability ([7]; first compound 0.05 µM): 0.252
- relative viability ([7]; first compound 0.1581 µM): 0.271
- relative viability ([7]; first compound 0.5 µM): 0.324
- relative viability ([8]; first compound 0.005 µM): 0.593
- relative viability ([8]; first compound 0.01581 µM): 0.752
- relative viability ([8]; first compound 0.05 µM): 0.623
- relative viability ([8]; first compound 0.1581 µM): 0.719
- relative viability ([8]; first compound 0.5 µM): 0.678
- relative viability ([9]; first compound 0.005 µM): 0.396
- relative viability ([9]; first compound 0.01581 µM): 0.416
- relative viability ([9]; first compound 0.05 µM): 0.262
- relative viability ([9]; first compound 0.1581 µM): 0.339
- relative viability ([9]; first compound 0.5 µM): 0.281
- relative viability ([10]; first compound 0.005 µM): 0.433
- relative viability ([10]; first compound 0.01581 µM): 0.6
- relative viability ([10]; first compound 0.05 µM): 0.325
- relative viability ([10]; first compound 0.1581 µM): 0.492
- relative viability ([10]; first compound 0.5 µM): 0.506
- relative viability ([11]; first compound 0.005 µM): 0.488
- relative viability ([11]; first compound 0.01581 µM): 0.594
- relative viability ([11]; first compound 0.05 µM): 0.621
- relative viability ([11]; first compound 0.1581 µM): 0.648
- relative viability ([11]; first compound 0.5 µM): 0.561
- relative viability ([12]; first compound 0.005 µM): 0.601
- relative viability ([12]; first compound 0.01581 µM): 0.709
- relative viability ([12]; first compound 0.05 µM): 0.644
- relative viability ([12]; first compound 0.1581 µM): 0.509
- relative viability ([12]; first compound 0.5 µM): 0.569
- relative viability ([13]; first compound 0.005 µM): 0.331
- relative viability ([13]; first compound 0.01581 µM): 0.458
- relative viability ([13]; first compound 0.05 µM): 0.331
- relative viability ([13]; first compound 0.1581 µM): 0.342
- relative viability ([13]; first compound 0.5 µM): 0.306
- relative viability ([14]; first compound 0.005 µM): 0.588
- relative viability ([14]; first compound 0.01581 µM): 0.644
- relative viability ([14]; first compound 0.05 µM): 0.49
- relative viability ([14]; first compound 0.1581 µM): 0.555
- relative viability ([14]; first compound 0.5 µM): 0.61
- relative viability ([15]; first compound 0.005 µM): 0.405
- relative viability ([15]; first compound 0.01581 µM): 0.351
- relative viability ([15]; first compound 0.1581 µM): 0.403
- relative viability ([15]; first compound 0.5 µM): 0.381
- relative viability ([16]; first compound 0.005 µM): 0.372
- relative viability ([16]; first compound 0.05 µM): 0.359
- relative viability ([16]; first compound 0.1581 µM): 0.361
- relative viability ([16]; first compound 0.5 µM): 0.345
- relative viability ([17]; first compound 0.005 µM): 0.674
- relative viability ([17]; first compound 0.01581 µM): 0.689
- relative viability ([17]; first compound 0.05 µM): 0.467
- relative viability ([17]; first compound 0.1581 µM): 0.625
- relative viability ([17]; first compound 0.5 µM): 0.643
- relative viability ([18]; first compound 0.005 µM): 0.323
- relative viability ([18]; first compound 0.01581 µM): 0.333
- relative viability ([18]; first compound 0.05 µM): 0.335
- relative viability ([18]; first compound 0.1581 µM): 0.309
- relative viability ([18]; first compound 0.5 µM): 0.354
- relative viability ([19]; first compound 0.005 µM): 0.239
- relative viability ([19]; first compound 0.01581 µM): 0.308
- relative viability ([19]; first compound 0.05 µM): 0.193
- relative viability ([19]; first compound 0.1581 µM): 0.256
- relative viability ([19]; first compound 0.5 µM): 0.201
- relative viability ([20]; first compound 0.005 µM): 0.29
- relative viability ([20]; first compound 0.01581 µM): 0.354
- relative viability ([20]; first compound 0.05 µM): 0.312
- relative viability ([20]; first compound 0.1581 µM): 0.267
- relative viability ([20]; first compound 0.5 µM): 0.288
- relative viability ([21]; first compound 0.005 µM): 0.619
- relative viability ([21]; first compound 0.01581 µM): 0.643
- relative viability ([21]; first compound 0.05 µM): 0.577
- relative viability ([21]; first compound 0.1581 µM): 0.572
- relative viability ([21]; first compound 0.5 µM): 0.392
- relative viability ([22]; first compound 0.005 µM): 0.451
- relative viability ([22]; first compound 0.01581 µM): 0.464
- relative viability ([22]; first compound 0.05 µM): 0.502
- relative viability ([22]; first compound 0.1581 µM): 0.471
- relative viability ([22]; first compound 0.5 µM): 0.324
- relative viability ([23]; first compound 0.005 µM): 0.479
- relative viability ([23]; first compound 0.01581 µM): 0.627
- relative viability ([23]; first compound 0.05 µM): 0.322
- relative viability ([23]; first compound 0.1581 µM): 0.639
- relative viability ([23]; first compound 0.5 µM): 0.666
